Measurements published in patent publication US20170128483A1, “HOST DEPENDENCY FACTORS AS TARGETS FOR ANTIVIRAL THERAPY” (Ruprecht-Karls-Universitat Heidelberg, priority 2014, published 2017).
Where a name gives a salt, the structure may show the parent alone. Read-outs that look alike come from different tables or passages of the source.

How the values were obtained:
DENV-2 [1] = assay: Virus yield inhibition assay, DENV-2 in Huh7 cells, titers by plaque assay; details: for Maximum effect on DENV replication (in words) / Emax: Huh7, DENV-2 MOI 0.1, 48 h; for Emax / EC50: Dengue virus; for Emax: DENV2, Huh-7, 48 h
PPARα = target: T1, PPARα (Homo sapiens, UniProt Q07869); details: antagonist; cited from earlier work
T1 sequence (Q07869 1-468): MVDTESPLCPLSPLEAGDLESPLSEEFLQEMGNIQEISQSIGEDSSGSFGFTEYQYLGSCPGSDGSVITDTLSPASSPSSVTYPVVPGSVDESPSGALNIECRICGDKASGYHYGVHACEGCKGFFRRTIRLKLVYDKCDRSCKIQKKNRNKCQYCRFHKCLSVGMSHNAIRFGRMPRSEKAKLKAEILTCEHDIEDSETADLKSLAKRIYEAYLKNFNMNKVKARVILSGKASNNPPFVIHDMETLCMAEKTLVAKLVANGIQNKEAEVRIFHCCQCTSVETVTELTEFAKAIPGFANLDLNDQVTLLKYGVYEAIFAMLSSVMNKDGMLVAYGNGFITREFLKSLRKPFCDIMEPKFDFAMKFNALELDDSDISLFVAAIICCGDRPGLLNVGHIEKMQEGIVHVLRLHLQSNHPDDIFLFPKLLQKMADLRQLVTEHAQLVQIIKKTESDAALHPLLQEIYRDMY

PPARγ = target: T2, PPARγ (Homo sapiens, UniProt P37231); details: antagonist; cited from earlier work
T2 sequence (P37231 1-505): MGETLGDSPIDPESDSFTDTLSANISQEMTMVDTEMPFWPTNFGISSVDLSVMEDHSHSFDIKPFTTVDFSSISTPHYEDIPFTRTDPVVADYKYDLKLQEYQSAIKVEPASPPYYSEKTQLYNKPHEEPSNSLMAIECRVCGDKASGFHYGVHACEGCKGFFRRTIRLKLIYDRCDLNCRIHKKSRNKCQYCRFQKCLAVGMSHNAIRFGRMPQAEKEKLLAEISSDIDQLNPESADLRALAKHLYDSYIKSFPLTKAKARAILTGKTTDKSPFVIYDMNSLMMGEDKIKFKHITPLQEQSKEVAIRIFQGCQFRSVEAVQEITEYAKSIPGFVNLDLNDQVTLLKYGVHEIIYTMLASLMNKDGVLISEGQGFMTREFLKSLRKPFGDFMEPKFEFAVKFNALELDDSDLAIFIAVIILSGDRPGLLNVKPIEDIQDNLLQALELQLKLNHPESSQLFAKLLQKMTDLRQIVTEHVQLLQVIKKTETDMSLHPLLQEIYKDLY

DENV-2 [2] = assay: Virus yield inhibition, DENV-2 in primary human monocytes, plaque assay; format: cell-based; details: Dengue virus, DENV2, Monocyte
Description: Primary human monocytes isolated from peripheral blood from healthy donors were infected with DENV-2 at an MOI of 10 PFU/cell in the presence of the drug.
Peripheral blood samples from three healthy donors were collected in EDTA tubes. The blood was then diluted with 2 volumes of DPBS without calcium and without magnesium (PAN Biotech) and carefully layered onto Ficoll-hypaque (PAN Biotech). The blood was then subjected to centrifugation at 700 g, without brakes. The interphase cells containing the peripheral blood mononuclear cells (PBMCs) were aspirated, transferred to a clean tube and washed three times with DPBS. CD14+ monocytes were isolated using MicroBeads conjugated to monoclonal anti-human CD14 antibodies (MACS Miltenyi Biotec) according to the manufacturer's instructions, with some modifications. Briefly, 10 μl of Microbeads were incubated with 1×10^7 cells for 15 min at 4° C. After washing with DPBS magnetic separation of CD14+ monocytes was performed using an autoMACS Separator. The purity of the isolated monocytes (89.8% for donor 1, 94.8% for donor 2 and 97.7% for donor 3) was corroborated by FACS staining using anti-CD14 antibodies.
Identification of host factors using RNAi may depend to a large extent on the cellular system chosen to perform the screen, what argues for the need of testing the selected hit candidates in cellular systems more representative of the infection in nature. […] The impact of the drug on virus production was assessed by plaque assay 48 h after infection.

primary human monocytes = assay: Viability of primary human monocytes (ATP content); format: cell-based; details: 48 h
DENV-1 = assay: Virus yield inhibition assay, DENV-1 in Huh7 cells; format: cell-based, Dengue virus; details: 200 μM, Huh7, 48 h
Source text: (§1) Given the only 62-67% of amino acid conservation among DENV serotypes (Kyle & Harris 2008), the different serotypes might not be equally dependent on the same host factors for their replication.

DENV-3 = assay: Virus yield inhibition assay, DENV-3 in Huh7 cells; format: cell-based, Dengue virus; details: 200 μM, Huh7, 48 h
Source text: as §1

DENV-4 = assay: Virus yield inhibition assay, DENV-4 in Huh7 cells; format: cell-based, Dengue virus; details: 200 μM, Huh7, 48 h
Source text: as §1

DENVsg reporter replicon = assay: microbe, parasite or virus in culture; format: cell-based, Dengue virus
DENV(GND)sg-R2A = format: cell-based, Dengue virus; details: 200 μM, initial 10 h of transfection
[3] = Cell viability of Huh7 cells (ATP content / F-Luc activity); details: human
DENVTCP = assay: Time-of-addition with single-round DENVTCP particles in Huh7 cells, Rluc; details: 200 μM, readout 48 h
[4] = concentration per compound as in Table 1
[5] = read-out: Maximum effect on DENV replication (inhibition), inhibition of virus production, concentration per compound as in Table 1 column 'Concentration used (FIG. 3B)'

CC1CCC(C(C)C)C(O)C1 (centres unmarked) [Menthol, 2-Isopropyl-5-methylcyclohexanol]
Maximum effect on DENV replication (in words) (DENV-2 [1]; [4]): inactive

COc1ccc(NC(=O)C2C[C@H](C)CC[C@H]2C(C)C)cc1 (stereo partly drawn) [WS-12, (2S,5R)-2-Isopropyl-N-(4-methoxyphenyl)-5-methylcyclohexane carboximide]
Maximum effect on DENV replication (in words) (DENV-2 [1]; [4]): inactive

Cl.N=C(N)CCl [2CA, 2-chloroethanimidamide hydrochloride]
inhibition on virus production (DENV-2 [1]; 50 μM, Huh7, 48 h): 77%

COC(=O)c1sccc1S(=O)(=O)Nc1ccc(Nc2ccccc2)cc1OC [GSK0660, 3-(((2-Methoxy-4-(phenylamino)phenyl)amino)sulfonyl)-2-thio-phenecarboxylic acid methyl ester]
IC50 (PPARα): > 10 µM | IC50 (PPARγ): > 10 µM | Emax (DENV-2 [1]; [5]): ~62%

Oc1cc2c(cc1O)CN(C(=S)NCCc1ccc(Cl)cc1)CCC2 [Capsazepine, N-[2-(4-Chlorophenyl)ethyl]-1,3,4,5-tetrahydro-7,8-dihydroxy-2H-2-benzazepine-2-carbothioamide]
Maximum effect on DENV replication (in words) (DENV-2 [1]; [4]): inactive

Cc1cc(SCc2sc(-c3ccc(C(F)(F)F)c(F)c3)nc2C)ccc1OCC(=O)O [GW0742]
Emax (DENV-2 [1]; read-out: Maximum effect on DENV replication (enhancement), enhancement of virus production, concentration per compound as in Table 1): ~48%

C[N+](C)(C)CC#CCN1CCCC1=O.[I-] [Oxotremorine M, N,N,N,-trimethyl-4-(2-oxo-1-pyrrolidinyl)-2-butyn-1-ammonium iodide]
Maximum effect on DENV replication (in words) (DENV-2 [1]; [4]): inactive

N=C(CCl)NCCC[C@H](NC(=O)c1ccccc1)C(N)=O [Cl-amidine, N-α-benzoyl-N5-(2-chloro-1-iminoethyl)-L-ornithine amide]
EC50 (DENV-2 [2]; 48 h, monocytes of Donor 1, MOI 10, 48 h, read-out: EC50): 16.9 µM | EC50 (DENV-2 [2]; 48 h, monocytes of Donor 2, MOI 10, 48 h, read-out: EC50): 24.6 µM | EC50 (DENV-2 [2]; 48 h, monocytes of Donor 3, MOI 10, 48 h, read-out: EC50): 22.9 µM | EC50 (DENV-2 [2]; three donors, read-out: EC50 values among different donors): 17 to 25 µM | cytotoxicity for primary human monocytes (primary human monocytes): not cytotoxic | reduction on virus production (DENV-1): 10 fold | reduction on virus production (DENV-3): 10 fold | reduction on virus production (DENV-4): 10 fold | luciferase activity vs DMSO-treated cells (DENVsg reporter replicon; 200 μM, initial 10 h of transfection): no difference in luciferase activity | EC50 (DENVsg reporter replicon; Dengue virus, Huh-7, 48 h, read-out: EC50 (R-Luc activity)): 16.5 ± 2.49 µM | luciferase activity vs DMSO-treated cells (DENV(GND)sg-R2A): no difference in luciferase activity | CC50 at 48 h [3]: > 1000 µM | time of addition after infection up to which inhibitory effect remained significant (DENVTCP): up to 8 h | reduction on virus production (DENV-2 [1]; 200 μM, Huh7, 48 h): 10 fold | Emax (DENV-2 [1]; [5]): 92.7% | EC50 (DENV-2 [1]; DENV2, Huh-7, Huh7 transduced with shNT#2): 17.1 µM | EC50 (DENV-2 [1]; DENV2, Huh-7, Huh7 transduced with shPADI4#4 (PADI4 silenced)): 1.18 µM | EC50 (DENV-2 [1]; DENV2, Huh-7, read-out: EC50 ± SD): 215 ± 19 µM | EC50 (DENV-2 [1]; DENV2, Huh-7, read-out: EC50 ± SD, Huh7-Empty control cell line): 19.3 ± 2.36 µM | EC50 (DENV-2 [1]; DENV2, Huh-7, read-out: EC50 ± SD, Parental Huh7, 2 h pretreatment, 48 h): 16.1 µM | inhibition of virus titers (DENV-2 [1]; highest concentration tested, Huh7): up to 100 fold

CN1C2CCC1CC(OC(=O)C(CO)c1ccccc1)C2 (stereo not drawn) [Atropine, α-(Hydroxymethyl)benzeneacetic acid 8-methyl-8-azabicyclo[3.2.1]oct-3-yl ester]
Maximum effect on DENV replication (in words) (DENV-2 [1]; [4]): inactive

COc1ccccc1CNCCCCCCNCCCCCCCCNCCCCCCNCc1ccccc1OC [Methoctramine hydrate, N,N,′-bis[6-[[(2-Methoxyphenyl)methyl]amino]hexyl]-1,8-octane diaminetetrahydrochloride hydrate]
Maximum effect on DENV replication (in words) (DENV-2 [1]; [4]): inactive

C=C(C)C1CNC(C(=O)O)C1CC(=O)O (centres unmarked) [Kainic acid monohydrate, 2-Carboxy-3-carboxymethyl-4-isopropenylpyrrolidine]
Maximum effect on DENV replication (in words) (DENV-2 [1]; [4]): inactive

O=c1c(-c2ccc(O)cc2)coc2cc(O[C@@H]3O[C@H](CO)[C@@H](O)[C@H](O)[C@H]3O)ccc12 [Daidzin, Daidzein-7-O-β-D-glucopyranoside]
Maximum effect on DENV replication (in words) (DENV-2 [1]; [4]): inactive

O=C(NCc1ccc2c(c1)OCO2)c1c(Cl)cccc1Cl [Alda-1, N-(1,3-Benzodioxol-5-ylmethyl)-2,6-dichlorobenzamide]
Maximum effect on DENV replication (in words) (DENV-2 [1]; [4]): inactive
